Experimental data as given in patent publication US8735388B2, “Heterocyclic compounds with affinity to muscarinic receptors” (Abbvie B. V. A., priority 2007, dated 2014).
pKi: −log10 of the molar value.

Experiments:
[1] = molecular target: T1, Muscarine M4 (GPCR-A-MA-ACH M4) (Homo sapiens, UniProt P08173); assay: Muscarine M4 receptor binding, 3H-4DAMP; conditions: human M4, CHO cells, ligand 0.2 nM, 60 min/22° C., read-out: RB Musc. M4 3H-DAMP pKi (converted)
T1 construct: expressed in transfected cells; host or cells: CHO cells
T1 sequence (P08173 1-479): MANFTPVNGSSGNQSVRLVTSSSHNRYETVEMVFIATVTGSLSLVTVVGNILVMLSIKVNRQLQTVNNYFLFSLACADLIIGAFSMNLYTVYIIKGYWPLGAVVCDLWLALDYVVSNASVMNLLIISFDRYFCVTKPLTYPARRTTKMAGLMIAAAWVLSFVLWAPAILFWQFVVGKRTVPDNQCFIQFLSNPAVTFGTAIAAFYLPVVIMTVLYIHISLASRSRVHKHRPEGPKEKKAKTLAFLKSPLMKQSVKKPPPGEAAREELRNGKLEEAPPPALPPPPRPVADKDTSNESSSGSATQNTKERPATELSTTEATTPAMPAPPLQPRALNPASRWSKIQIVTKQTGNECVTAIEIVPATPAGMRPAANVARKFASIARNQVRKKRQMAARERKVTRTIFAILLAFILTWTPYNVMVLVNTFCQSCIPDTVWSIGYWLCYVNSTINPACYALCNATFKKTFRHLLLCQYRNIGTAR
Outline: (§1)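 Human M1 ([3H]-pirenzepine), M3, and M4 ([3H]-4DAMP or [3H]-oxotremorine) receptor preparations incubated with radioligand and compound, first at 10 μM, then at 10-fold lower concentrations if inhibition exceeded 40%. Bound ligand separated by glass-fibre filtration and counted by scintillation. IC50 from Hill fit, converted to Ki via Cheng-Prusoff, reported as pKi.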

[2] = molecular target: T1, Muscarine M4 (GPCR-A-MA-ACH M4); assay: Muscarine M4 receptor binding, 3H-Oxotremorine; conditions: human M4, CHO cells; receptor binding, ligand 6 nM, 30 min/25° C.; read-out: RB Musc. M4 3H-Oxotremorine pKi (converted)
Outline: as §1

[3] = molecular target: T1, Muscarine M4 (GPCR-A-MA-ACH M4); assay: Muscarine M4 cell-based functional assay (CHO cells, Ca2+ - Aequorin luminescence); conditions: human M4, CHO cells; agonist mode, reference agonist oxotremorine; read-out: Cell funct. Musc. M4 Agonism pEC50 (converted)
Outline: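 CHO cells expressing human M4 were exposed to compound, with Ca2+ response read by aequorin luminescence. Compounds were first tested at 1 μM, then at 10-fold lower concentrations if active; stimulation or inhibition was relative to the reference agonist. EC50/IC50 came from Hill-equation fits.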

[4] = molecular target: T2, Muscarine M2 (GPCR-A-MA-ACH M2) (Homo sapiens, UniProt P08172); assay: Muscarine M2 receptor binding; conditions: human M2, CHO cells; receptor binding
T2 construct: expressed in transfected cells; host or cells: CHO cells
T2 sequence (P08172 1-466): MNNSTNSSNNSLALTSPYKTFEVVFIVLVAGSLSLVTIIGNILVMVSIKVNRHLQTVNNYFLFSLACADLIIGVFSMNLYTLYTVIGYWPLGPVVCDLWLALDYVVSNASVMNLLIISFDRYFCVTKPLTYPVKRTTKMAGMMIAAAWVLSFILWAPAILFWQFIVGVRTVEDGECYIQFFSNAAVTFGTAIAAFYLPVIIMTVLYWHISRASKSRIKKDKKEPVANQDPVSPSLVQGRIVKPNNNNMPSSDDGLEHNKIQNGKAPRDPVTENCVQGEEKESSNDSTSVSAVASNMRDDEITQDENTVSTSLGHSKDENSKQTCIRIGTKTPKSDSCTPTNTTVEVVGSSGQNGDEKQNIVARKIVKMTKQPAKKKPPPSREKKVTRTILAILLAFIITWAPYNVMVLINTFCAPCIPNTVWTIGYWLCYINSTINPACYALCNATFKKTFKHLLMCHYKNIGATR

[5] = Stability in human liver homogenate (metabolic stability in vitro); type: in vitro ADME; conditions: read-out: t ½
Description: DÖRJE, F., WESS, J., LAMBRECHT, G., TACKE, R., […], E. and BRANN, M. R. (1991) Antagonist binding profiles of five cloned human muscarinic receptor subtypes. J. Pharmacol. Exp. Ther., 256: 727-733. • […], M. H. (1990) Rat hippocampal muscarinic autoreceptors are similar to the M2 (cardiac) subtype: comparison with hippocampal M1, atrial M2 and ileal M3 receptors. Brit. J. Pharmacol., 99: 753-761. • PERALTA, E. G., ASHKENAZI, A., WINSLOW, J. W., SMITH, D. H., […], J. and CAPON, D. J. (1987) Distinct primary structures, ligand-binding properties and tissue-specific expression of four human muscarinic acetylcholine receptors. EMBO. J., 6: 3923-3929. Determination of Metabolic Stability (In Vitro)
Method used according to procedures described by DI, L. et al., Journal of Biomolecular Screening, Vol. 8, No. 4, 453-462 (2003).

| SMILES | Ki [1] [µM] | Ki [2] [µM] | EC50 [3] [µM] | pKi [4] | half-life [5] [h] |
| --- | --- | --- | --- | --- | --- |
| C=CCCCSc1c[nH]nc1C1=CCCN(C)C1 [Compound 22L] | 0.1 | 0.0631 | 0.0631 | 5.70 | 0.933 |
| CN1CCC=C(c2n[nH]cc2SCCC=C(F)F)C1 [Compound 22J, 3-[4-(4,4-Difluoro-but-3enylsulfanyl)-1H-pyrazol-3-yl]-1,2,5,6-tetrahydro-1-methylpyridine] | 0.251 | 0.0631 | 0.251 | 5.50 | 2.15 |
| CCOCCSc1c[nH]nc1C1=CCCN(C)C1 [Compound 22O, 3-[4-(2-Ethoxy-ethylsulfanyl)-1H-pyrazol-3-yl]-1,2,5,6-tetrahydro-1-methylpyridine] | 0.794 | 0.398 | 0.631 | 5.00 | 4.08 |

Results, then the molecule that gave them:

| Ki [1] [µM] | Ki [2] [µM] | EC50 [3] [µM] | pKi [4] | half-life [5] [h] | SMILES |
| --- | --- | --- | --- | --- | --- |
| 0.501 | 0.316 | 0.794 | 5.30 | 3.83 | C=CCCCOc1c[nH]nc1C1=CCCN(C)C1 [Compound 33F, 3-(4-Pent-4-enyloxy-1H-pyrazol-3-yl)-1,2,5,6-tetrahydro-1-methylpyridine] |
| 0.2 | 0.126 | 0.631 | 5.40 | 0.933 | CCCCCOc1c[nH]nc1C1=CCCN(C)C1 [Compound 33G, 3-(4-Pentyloxy-1H-pyrazol-3-yl)-1,2,5,6-tetrahydro-1-methylpyridine] |
